# Test results taken from patent US20220151993A1, “TREATMENT OF ANXIETY AND DEPRESSION” (NEW YORK UNIVERSITY, priority 2020, published 2022).
# Legend:
# [1] = tested on: patients with cancer-related psychiatric and existential distress; assay: Lasting negative or adverse effects reported during long-term follow-up; format: in vivo, human; details: LTFU period; 13 of 14 participants provided information
# Procedure: (§1) 29 participants were randomly assigned to one of two groups: psilocybin (0.3 mg/kg) on the first medication session followed by niacin (250 mg) on the second session (i.e. psilocybin-first group), or niacin (250 mg) on the first medication session followed by psilocybin (0.3 mg/kg) on the second session (i.e. niacin-first group). Psilocybin and niacin were administered in identically appearing gelatin capsules.
# (§2) Participants received three 2-hour preparatory psychotherapy sessions in order to review the purpose and intention of participation in the study, treatment goals, and structure of the treatment sessions. Medications were administered in 8-hour treatment sessions which included a discussion of the participant's subjective experience with the treatment team to consolidate the memory of the experience and to begin the process of post-integrative psychotherapy. Participants also received three 2-hour post-medication integration sessions (repeated after the second dosing session) to further consolidate the memory of the experience and to continue the process of psychological integration. […]
# [2] = tested on: patients with cancer-related psychiatric and existential distress; assay: Beck Depression Inventory-II (BDI-II), long-term follow-up; format: in vivo, human; details: single 0.3 mg/kg dose with psychotherapy, baseline 14.19
# Procedure: (§3) The present example assesses the long-term effects of a single dose of psilocybin (0.3 mg/kg) in conjunction with psychotherapy in patients with cancer-related psychiatric and existential distress.
# as §1
# as §2, with “integration. All psychotherapy treatment sessions were delivered by a dyadic therapy team trained in a blend of psychotherapies with an evidence base to support their use in cancer patients (drawing upon principles of palliative care therapy, existential psychotherapy, cognitive-behavioural therapy, psychoanalysis therapy, and transpersonal psychology) and were taught about the safety and clinical pharmacology of psilocybin.” for “integration.”
# Primary outcomes (anxiety and depression) were measured according to the following methods: • Hospital Anxiety and Depression Scale (HADS) (Zigmond and Snaith, 1983)—this is widely used in hospital settings to screen for the severity of anxiety and depression. […] Subscale scores can be calculated for depression (HADS-D) and anxiety (HADS-A). […]
# [3] = tested on: patients with cancer-related psychiatric and existential distress; assay: Demoralization Scale (DS), long-term follow-up; format: in vivo, human; details: single 0.3 mg/kg dose with psychotherapy, baseline 31.88, p < 0.001 vs baseline
# Procedure: as §3, §1
# as §2, with “integration. All psychotherapy treatment sessions were delivered by a dyadic therapy team trained in a blend of psychotherapies with an evidence base to support their use in cancer patients (drawing upon principles of palliative care therapy, existential psychotherapy, cognitive-behavioural therapy, psychoanalysis therapy, and transpersonal psychology) and were taught about the safety and clinical pharmacology of psilocybin.” for “integration.”
# Cancer-related existential distress (demoralization, hopelessness, attitudes and effects associated with disease progression and death) was assessed using the following methods: • The Death Anxiety Scale (DAS) (Templer, 1970)—a 15-item measure that has been used most frequently to assess death anxiety. Items are scored “true” and “false” and then scored as one and zero, respectively. […]
# [4] = tested on: patients with advanced-stage cancer; details: single moderate dose 0.2 mg/kg; cited from earlier work
# [5] = tested on: patients with life-threatening cancer; details: cited from earlier work
# [6] = tested on: patients with life-threatening cancer; details: 6-month follow up; cited from earlier work
# [7] = tested on: patients with cancer-related psychiatric and existential distress; assay: Hospital Anxiety and Depression Scale (HADS), long-term follow-up of psilocybin-assisted psychotherapy trial; format: in vivo, human; details: for HADS Depression / HADS Anxiety / HADS Total: single 0.3 mg/kg dose with psychotherapy; for HADS Depression: baseline 5.88; for HADS Anxiety: baseline 10.56; for HADS Total: baseline 16.45
# Procedure: as §3, §1
# (§4) Participants received three 2-hour preparatory psychotherapy sessions in order to review the purpose and intention of participation in the study, treatment goals, and structure of the treatment sessions. Medications were administered in 8-hour treatment sessions which included a discussion of the participant's subjective experience with the treatment team to consolidate the memory of the experience and to begin the process of post-integrative psychotherapy. Participants also received three 2-hour post-medication integration sessions (repeated after the second dosing session) to further consolidate the memory of the experience and to continue the process of psychological integration. All psychotherapy treatment sessions were delivered by a dyadic therapy team trained in a blend of psychotherapies with an evidence base to support their use in cancer patients (drawing upon principles of palliative care therapy, existential psychotherapy, cognitive-behavioural therapy, psychoanalysis therapy, and transpersonal psychology) and were taught about the safety and clinical pharmacology of psilocybin. Each therapy dyad underwent six confidential one-to-one sessions to build their alliance and exchange ideas about psychedelic therapy. The trial employed a crossover design at seven weeks following the first drug administration, with an outcome assessment at 6.5 months (26 weeks) following the second drug administration (i.e. after the crossover).
# (§5) Two long-term follow ups (LTFUs) were carried out to assess the continued effect of psilocybin. Of the original 29 participants, all 16 participants who were not deceased at the time of LTFU were contacted (the remaining 13 participants were deceased). Of the 16 participants who were contacted, 15 agreed to participate in the LTFU and completed measures through a secure online portal. One participant died (from cancer-related complications) after completing the first LTFU and prior to the second LTFU, leaving us with 14 participants at the second LTFU. The first and second LTFUs occurred on average 3.2 years (range 2.3-4.5 years) and 4.5 years (range 3.5-5.5 years) following the participants' psilocybin dosing date, respectively.
# Primary outcomes (anxiety and depression) were measured according to the following methods: • Hospital Anxiety and Depression Scale (HADS) (Zigmond and Snaith, 1983)—this is widely used in hospital settings to screen for the severity of anxiety and depression. It contains 14 questions rated on a four-point scale (total score (HAD-T) ranges from […]). Subscale scores can be calculated for depression (HADS-D) and anxiety (HADS-A). […] The HADS has shown good reliability (Cronbach's a ranging from 0.80-0.93) and has been well validated (Herrmann, 1997). • Beck Depression Inventory-II (BDI-II) (Beck et al., 1988)—a widely used self-report screening measure for depression. The BDI-II consists of 21 questions about depressive symptoms experienced over the past two weeks rated on a […] scale (total score ranges from 0-63). Scores above 12 indicate possible clinical depression. This measure has shown good reliability (internal consistency of 0.90) and factorial validity (Storch et al. 2004). • Spielberger State-Trait Anxiety Inventory (STAI) (Spielberger, 1983)—a well-known measure of anxiety consisting of scales for state (STAI-S) and trait-level anxiety (STAI-T). […]
# [8] = tested on: patients with cancer-related psychiatric and existential distress; assay: Existential distress measures (hopelessness, demoralization, death anxiety) combined: effect sizes; format: in vivo, human
# Procedure: as §3, §1, §4, §5
# Cancer-related existential distress (demoralization, hopelessness, attitudes and effects associated with disease progression and death) was assessed using the following methods: • The Death Anxiety Scale (DAS) (Templer, 1970)—a 15-item measure that has been used most frequently to assess death anxiety. Items are scored “true” and “false” and then scored as one and zero, respectively. Total scores range between 0-15. Higher scores represent increased severity of death anxiety. Scores below eight are considered normative levels of death anxiety. Templer (1970) reported adequate test-retest reliability (r=0.83) and validity. • The Hopelessness Assessment in Illness (HAI) (Rosenfeld et al., 2011)—an eight-item instrument developed for use in patients with advanced cancer. Total scores range from 0-16. Higher scores indicate higher levels of hopelessness. Data have not been published regarding recommended clinical cut-off scores for this measure. […]
# [9] = mean score at 4.5 years, p < 0.001 vs baseline
# [10] = mean score at 6.5-8 months, p < 0.001 vs baseline
# [11] = mean score at 3.2 years, p < 0.001 vs baseline
smiles,measurement,setting,value
"CN(C)CCc1c[nH]c2cccc(OP(=O)(O)O)c12 [psilocybin, [3-(2-dimethylaminoethyl)-1H-indol-4-yl] dihydrogen phosphate]",lasting negative or adverse effects from the psilocybin-assisted therapy experiences,[1],None of the participants reported lasting negative or adverse effects
same,Beck Depression,"[2]; mean score at 3.2 years, p < 0.01 vs baseline",7.75
same,Beck Depression,[2]; [9],5.45
same,Beck Depression,[2]; [10],5.09
same,Demoralization,[3]; mean score at 3.2 years,13.29
same,Demoralization,[3]; mean score at 4.5 years,14.32
same,Demoralization,[3]; mean score at 6.5-8 months,16.84
same,adverse events,[4],no clinically significant adverse events
same,time after treatment up to which levels of anxiety were reduced,[4],up to 3 months
same,time after treatment up to which levels of depression were reduced,[4],up to 6 months
same,patients meeting criteria for clinically significant antidepressant or anxiolytic responses,"[5]; final 6.5 month follow up point, 0.3 mg/kg with psychotherapy",60-80%
same,time post dosing up to which rapid and sustained anxiolytic and antidepressant effects were seen,[5]; single dosing session 0.3 mg/kg with psychotherapy,up to 7 weeks
same,participants continuing to show decreases in depressed mood and anxiety,[6],about 80%
same,correlation (r) of length of time between psilocybin session and follow-up with HAD-D depression change score,"[7]; Spearman, second LTFU subtracted from two-weeks post-psilocybin dose scores, p<0.01",0.70
same,HADS Depression,[7]; [11],2.25
same,HADS Anxiety,[7]; [11],5.50
same,HADS Total,[7]; [11],7.13
same,HADS Depression,"[7]; mean score at 4.5 years, p < 0.01 vs baseline",2.30
same,HADS Anxiety,[7]; [9],4.99
same,HADS Total,[7]; [9],7.34
same,HADS Depression,[7]; [10],1.75
same,HADS Anxiety,[7]; [10],2.81
same,HADS Total,[7]; [10],4.38
same,participants with clinically significant reductions in global psychological distress on the HADS-T,"[7]; second LTFU point (4.5 years, n=14), 50% or greater reduction relative to baseline",Seventy-one
same,participants with clinically significant anxiolytic response on the HADS-A,"[7]; second LTFU point (4.5 years, n=14), response = 50% or greater reduction relative to baseline",57%
same,"mean Cohen's d, reductions in hopelessness, demoralization and death anxiety since baseline",[8]; 6.5-month point,1.39
same,"range of Cohen's d, hopelessness, demoralization and death anxiety",[8]; 6.5-month point,0.88-2.00
same,"mean Cohen's d, reductions in hopelessness, demoralization and death anxiety since baseline",[8]; first LTFU (mean 3.2 years),1.39
same,"range of Cohen's d, hopelessness, demoralization and death anxiety",[8]; first LTFU (mean 3.2 years),0.80-1.77
same,"mean Cohen's d, reductions in hopelessness, demoralization and death anxiety since baseline",[8]; second LTFU (mean 4.5 years),1.60
same,"range of Cohen's d, hopelessness, demoralization and death anxiety",[8]; second LTFU (mean 4.5 years),1.00-2.00
